In patent publication US11919901B2 (Syndax Pharmaceuticals, Inc., priority 2021, dated 2024):

Molecular target: Menin-MLL (Homo sapiens (Human), UniProt O00255)
Experiment: Determination of binding constants (Ki) to Menin-MLL (HTRF)
Conditions: HTRF, 0.25 nM H-FL-Menin, 3.2 nM FITC-MLL-4-43, 24 hr incubation; for Ki: read-out: Menin-MLL Ki HTRF Assay: Ki

Sequence of Menin-MLL (O00255 whole entry): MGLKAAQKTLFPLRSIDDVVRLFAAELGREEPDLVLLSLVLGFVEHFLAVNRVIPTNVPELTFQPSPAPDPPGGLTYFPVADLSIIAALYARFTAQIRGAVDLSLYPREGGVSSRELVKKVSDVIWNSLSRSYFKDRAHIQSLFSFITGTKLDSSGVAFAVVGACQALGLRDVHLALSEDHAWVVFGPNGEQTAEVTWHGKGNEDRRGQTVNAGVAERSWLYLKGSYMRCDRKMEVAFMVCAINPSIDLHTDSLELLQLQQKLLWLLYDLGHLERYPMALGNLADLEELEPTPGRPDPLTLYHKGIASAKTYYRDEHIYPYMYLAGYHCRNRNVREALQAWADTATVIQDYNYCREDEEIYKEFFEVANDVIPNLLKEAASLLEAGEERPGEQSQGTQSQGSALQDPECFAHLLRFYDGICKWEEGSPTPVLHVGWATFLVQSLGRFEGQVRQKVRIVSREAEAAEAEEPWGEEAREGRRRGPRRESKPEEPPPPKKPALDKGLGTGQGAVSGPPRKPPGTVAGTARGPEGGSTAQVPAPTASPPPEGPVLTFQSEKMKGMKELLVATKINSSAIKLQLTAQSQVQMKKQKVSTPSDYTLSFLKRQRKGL

Compound | Ki [nM] | EC50 [nM]
CC(C)N(C(=O)c1cc(F)ccc1Oc1cncnc1N1CC2(CCN(C[C@@H]3CC[C@@H](NS(=O)(=O)N4CCCC4)CO3)CC2)C1)[C@H]1CCOC1 [Compound 178, 5-Fluoro-N-isopropyl-2-((4-(7-(((2S,5R)-5-(pyrrolidine-1-sulfonamido)tetrahydro-2H-pyran-2-yl)methyl)-2,7-diazaspiro[3.5]nonan-2-yl)pyrimidin-5-yl)oxy)-N-((S)-tetrahydrofuran-3-yl)benzamide] | < 1 | –
CCS(=O)(=O)N[C@@H]1CC[C@@H](CN2CCC3(CC2)CN(c2ncncc2Oc2ccc(F)cc2C(=O)N2[C@H](C)COC[C@H]2C)C3)OC1 [Compound 29] | < 1 | < 50
CC(C)N(C(=O)c1cc(F)ccc1Oc1cncnc1N1CC2(CCN(C[C@@H]3CC[C@@H](NS(=O)(=O)C4COC4)CO3)CC2)C1)C1CC(F)(F)C1 [Compound 115, N-(3,3-Difluorocyclobutyl)-5-fluoro-N-isopropyl-2-((4-(7-(((2S,5R)-5-(oxetane-3-sulfonamido)tetrahydro-2H-pyran-2-yl)methyl)-2,7-diazaspiro[3.5]nonan-2-yl)pyrimidin-5-yl)oxy)benzamide] | < 1 | < 50
CCN(C(=O)c1cc(F)ccc1Oc1cncnc1N1CC2(CCN(C[C@@H]3CC[C@@H](NC(=O)NCC4CC4)CO3)CC2)C1)C(C)C [Compound 42, 2-((4-(7-(((2S,5R)-5-(3-(cyclopropylmethyl)ureido)tetrahydro-2H-pyran-2-yl)methyl)-2,7-diazaspiro[3.5]nonan-2-yl)pyrimidin-5-yl)oxy)-N-ethyl-5-fluoro-N-isopropylbenzamide] | 1 to 1.5 | > 100
CCN(C(=O)c1cc(F)ccc1Oc1cncnc1N1CC2(CCN(C[C@@H]3CC[C@@H](NS(=O)(=O)c4ccc(=O)n(C)c4)CO3)CC2)C1)C(C)C [Compound 74, N-Ethyl-5-fluoro-N-isopropyl-2-((4-(7-(((2S,5R)-5-((1-methyl-6-oxo-1,6-dihydropyridine)-3-sulfonamido)tetrahydro-2H-pyran-2-yl)methyl)-2,7-diazaspiro[3.5]nonan-2-yl)pyrimidin-5-yl)oxy)benzamide] | < 1 | –
CC(C)S(=O)(=O)N[C@@H]1CC[C@@H](CN2CCC3(CC2)CN(c2ncncc2Oc2ccc(F)cc2C(=O)N2[C@H](C)COC[C@H]2C)C3)OC1 [Compound 30] | < 1 | < 50
CC(C)N(C(=O)c1cc(F)ccc1Oc1cncnc1N1CC2(CCN(C[C@@H]3CC[C@@H](NS(=O)(=O)N4CCCC4)CO3)CC2)C1)[C@@H]1CCOC1 [Compound 169, 5-Fluoro-N-isopropyl-2-((4-(7-(((2S,5R)-5-(pyrrolidine-1-sulfonamido)tetrahydro-2H-pyran-2-yl)methyl)-2,7-diazaspiro[3.5]nonan-2-yl)pyrimidin-5-yl)oxy)-N-((R)-tetrahydrofuran-3-yl)benzamide] | < 1 | –
CCN(C(=O)c1cc(F)ccc1Oc1cncnc1N1CC2(CCN(C[C@@H]3CC[C@@H](NS(=O)(=O)c4ccc(Cl)cc4)CO3)CC2)C1)C(C)C [Compound 61, 2-((4-(7-(((2S,5R)-5-((4-Chlorophenyl)sulfonamido)tetrahydro-2H-pyran-2-yl)methyl)-2,7-diazaspiro[3.5]nonan-2-yl)pyrimidin-5-yl)oxy)-N-ethyl-5-fluoro-N-isopropylbenzamide] | < 1 | < 50
C[C@@H]1COC[C@@H](C)N1C(=O)c1cc(F)ccc1Oc1cncnc1N1CC2(CCN(C[C@@H]3CC[C@@H](NS(=O)(=O)c4cnn(C)c4)CO3)CC2)C1 [Compound 126] | < 1 | –
C[C@@H]1COC[C@@H](C)N1C(=O)c1cc(F)ccc1Oc1cncnc1N1CC2(CCN(C[C@@H]3CC[C@@H](NS(=O)(=O)NCC(F)(F)F)CO3)CC2)C1 [Compound 157, {[(3R,6S)-6-{[2-(5-{2-[(3R,5R)-3,5-Dimethylmorpholine-4-carbonyl]-4-fluorophenoxy}pyrimidin-4-yl)-2,7-diazaspiro[3.5]nonan-7-yl]methyl}oxan-3-yl]sulfamoyl}(2,2,2-trifluoroethyl)amine] | < 1 | –
CCS(=O)(=O)N[C@@H]1CC[C@@H](CN2CCC3(CC2)CN(c2ncncc2Oc2ccc(F)cc2C(=O)N(C(C)C)[C@H]2CC[C@@H]2O)C3)OC1 (single isomer, unassigned) [Compound 257] | < 1 | < 50
C[C@@H]1COC[C@@H](C)N1C(=O)c1cc(F)ccc1Oc1cncnc1N1CC2(CCN(C[C@@H]3CC[C@@H](NS(=O)(=O)N(C)C4CC4)CO3)CC2)C1 [Compound 129, N-{[(3R,6S)-6-{[2-(5-{2-[(3R,5R)-3,5-Dimethylmorpholine-4-carbonyl]-4-fluorophenoxy}pyrimidin-4-yl)-2,7-diazaspiro[3.5]nonan-7-yl]methyl}oxan-3-yl]sulfamoyl}-N-methylcyclopropanamine] | < 1 | –
CC(C)N(C(=O)c1cc(F)ccc1Oc1cncnc1N1CC2(CCN(C[C@@H]3CC[C@@H](NS(C)(=O)=O)CO3)CC2)C1)[C@@H]1CCOC1 [Compound 166, 5-Fluoro-N-isopropyl-2-((4-(7-(((2S,5R)-5-(methylsulfonamido)tetrahydro-2H-pyran-2-yl)methyl)-2,7-diazaspiro[3.5]nonan-2-yl)pyrimidin-5-yl)oxy)-N-((R)-tetrahydrofuran-3-yl)benzamide] | < 1 | –
CCS(=O)(=O)N[C@@H]1CC[C@@H](CN2CCC3(CC2)CN(c2ncncc2Oc2ccc(F)cc2C(=O)N(c2ccccc2)C(C)C)C3)OC1 [Compound 260, 2-((4-(7-(((2S,5R)-5-(Ethylsulfonamido)tetrahydro-2H-pyran-2-yl)methyl)-2,7-diazaspiro[3.5]nonan-2-yl)pyrimidin-5-yl)oxy)-5-fluoro-N-isopropyl-N-phenylbenzamide] | – | < 50
CC(C)N(C(=O)c1cc(F)ccc1Oc1cncnc1N1CC2(CCN(C[C@@H]3CC[C@@H](NS(=O)(=O)C4CCOCC4)CO3)CC2)C1)C(C)C [Compound 79] | < 1 | < 50
CC(C)N(C(=O)c1cc(F)ccc1Oc1cncnc1N1CC2(CCN(C[C@@H]3CC[C@@H](NS(=O)(=O)C(C)C)CO3)CC2)C1)[C@@H]1CCOC1 [Compound 132, 5-Fluoro-N-i sopropyl-2-((4-(7-(((2S,5R)-5-((1-methylethyl)sulfonamido)tetrahydro-2H-pyran-2-yl)methyl)-2,7-diazaspiro[3.5]nonan-2-yl)pyrimidin-5-yl)oxy)-N-((R)-tetrahydrofuran-3-yl)benzamide] | < 1 | < 50
CC(C)N(C(=O)c1cc(F)ccc1Oc1cncnc1N1CC2(CCN(C[C@@H]3CC[C@@H](NS(=O)(=O)N4CCC[C@H]4C)CO3)CC2)C1)C1CCOC1 (stereo partly drawn) [Compound 207, 5-Fluoro-N-isopropyl-2-((4-(7-(((2S,5R)-5-(((R)-2-methylpyrrolidine)-1-sulfonamido)tetrahydro-2H-pyran-2-yl)methyl)-2,7-diazaspiro[3.5]nonan-2-yl)pyrimidin-5-yl)oxy)-N-((S)-tetrahydrofuran-3-yl)benzamide] | < 1 | –
CC[S@](=N)(=O)N[C@@H]1CC[C@@H](CN2CCC3(CC2)CN(c2ncncc2Oc2ccc(F)cc2C(=O)N(C(C)C)C(C)C)C3)OC1 (single isomer, unassigned) [Compound 227] | < 1 | –
CCN(C(=O)c1cc(F)ccc1Oc1cncnc1N1CC2(CCN(C[C@@H]3CC[C@@H](NS(=O)(=O)c4cccc(C)c4)CO3)CC2)C1)C(C)C [Compound 60, N-ethyl-5-fluoro-N-isopropyl-2-((4-(7-(((2S,5R)-5-((3-methylphenyl)sulfonamido)tetrahydro-2H-pyran-2-yl)methyl)-2,7-diazaspiro[3.5]nonan-2-yl)pyrimidin-5-yl)oxy)benzamide] | < 1 | < 50
CCCNS(=O)(=O)N[C@@H]1CC[C@@H](CN2CCC3(CC2)CN(c2ncncc2Oc2ccc(F)cc2C(=O)N(CC(F)F)C(C)C)C3)OC1 [Compound 151, N-(2,2-Difluoroethyl)-5-fluoro-N-isopropyl-2-((4-(7-(((2S,5R)-5-((N-propylsulfamoyl)amino)tetrahydro-2H-pyran-2-yl)methyl)-2,7-diazaspiro[3.5]nonan-2-yl)pyrimidin-5-yl)oxy)benzamide] | < 1 | –
CC(C)N(CC(F)(F)F)C(=O)c1cc(F)ccc1Oc1nncnc1N1CC2(CCN(C[C@H]3CC[C@H](NS(=O)(=O)N4CCC4)CO3)CC2)C1 (stereo in doubt) [Compound 194, 2-((5-(7-(((2R,5S)-5-(Azetidine-1-sulfonamido)tetrahydro-2H-pyran-2-yl)methyl)-2,7-diazaspiro[3.5]nonan-2-yl)-1,2,4-triazin-6-yl)oxy)-5-fluoro-N-isopropyl-N-(2,2,2-trifluoroethyl)benzamide] | < 1 | –
CC(C)N(C(=O)c1cc(F)ccc1Oc1cncnc1N1CC2(CCN(C[C@@H]3CC[C@@H](NS(=O)(=O)C(C)C)CO3)CC2)C1)C1CC(F)(F)C1 [Compound 110, N-(3,3-Difluorocyclobutyl)-5-fluoro-N-isopropyl-2-((4-(7-(((2S,5R)-5-((1-methylethyl)sulfonamido)tetrahydro-2H-pyran-2-yl)methyl)-2,7-diazaspiro[3.5]nonan-2-yl)pyrimidin-5-yl)oxy)benzamide] | < 1 | < 50
CC(C)N(CC(F)(F)F)C(=O)c1cc(F)ccc1Oc1nncnc1N1CC2(CCN(C[C@@H]3CC[C@@H](NS(=O)(=O)c4cnn(C)c4)CO3)CC2)C1 [Compound 192, 5-Fluoro-N-isopropyl-2-((5-(7-(((2R,5S)-5-((1-methyl-1H-pyrazole)-4-sulfonamido)tetrahydro-2H-pyran-2-yl)methyl)-2,7-diazaspiro[3.5]nonan-2-yl)-1,2,4-triazin-6-yl)oxy)-N-(2,2,2-trifluoroethyl)benzamide] | < 1 | –
CCN(C(=O)c1cc(F)ccc1Oc1cncnc1N1CC2(CCN(C[C@@H]3CC[C@@H](NS(=O)(=O)C4CCOCC4)CO3)CC2)C1)C(C)C [Compound 67, N-Ethyl-5-fluoro-N-isopropyl-2-((4-(7-(((2S,5R)-5-((tetrahydro-2H-pyran)-4-sulfonamido)tetrahydro-2H-pyran-2-yl)methyl)-2,7-diazaspiro[3.5]nonan-2-yl)pyrimidin-5-yl)oxy)benzamide] | < 1 | < 50
